US12239643B2, “Therapeutic agent for inflammatory diseases, autoimmune diseases, fibrotic diseases, and cancer diseases” (MEIJI SEIKA PHARMA CO., LTD., priority 2018, dated 2025)

test system: PDE4; assay: Evaluation of PDE4 inhibitory activity, scintillation proximity assay; assay type: biochemical; details: scintillation proximity assay; read-out: PDE4 Inhibitory Activity (Evaluation 1; concentration for the inhibition rate of 50%)
In short: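 SPA with [2,8-3H]-cAMP and diluted PDE4 enzyme preparation in 50 mM Tris-HCl pH 7.4, 8.3 mM MgCl2, 1.7 mM EGTA, 3 mg/mL BSA, 120 min at room temperature. Product captured on ZnSO4-containing YSi-SPA beads, scintillation counted; IC50 from inhibition curves vs DMSO control and no-enzyme blank.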

Row | SMILES | IC50 [nM]
1 | OC(COc1ccc(-c2nccs2)c2oc(N3CC4CC(C3)N4)nc12)C(F)(F)F (stereo not drawn) [Example 277, 3-((2-(3,6-Diazabicyclo[3.1.1]heptan-3-yl)-7-(thiazol-2-yl)benzo[d]oxazol-4-yl)oxy)-1,1,1-trifluoropropan-2-ol] | < 100
2 | FC(F)Oc1ccc(-c2nccs2)c2oc(N3CC4CC(C3)N4)nc12 [Example 278, 2-(3,6-Diazabicyclo[3.1.1]heptan-3-yl)-4-(difluoromethoxy)-7-(thiazol-2-yl)benzo[d]oxazole] | < 100
3 | CC(C)(O)COc1ccc(-c2nccs2)c2oc(N3CC4CC(C3)N4)nc12 [Example 279, 1-((2-(3,6-Diazabicyclo[3.1.1]heptan-3-yl)-7-(thiazol-2-yl)benzo[d]oxazol-4-yl)oxy)-2-methylpropan-2-ol] | < 100
4 | CC(C)(O)C(C)(C)OC(c1ccc(-c2nccs2)c2oc(N3CC4CC(C3)N4)nc12)C(F)(F)F (stereo not drawn) [Example 280, 3-(1-(2-(3,6-Diazabicyclo[3.1.1]heptan-3-yl)-7-(thiazol-2-yl)benzo[d]oxazol-4-yl)-2,2,2-trifluoroethoxy)-2,3-dimethylbutan-2-ol] | < 100
5 | COC(C)(C)COC(c1ccc(-c2nccs2)c2oc(N3CC4CC(C3)N4)nc12)C(F)(F)F (stereo not drawn) [Example 281, 2-(3,6-Diazabicyclo[3.1.1]heptan-3-yl)-7-(thiazol-2-yl)-4-(2,2,2-trifluoro-1-(2-methoxy-2-methylpropoxy)ethyl)benzo[d]oxazole] | < 100
6 | COC1(COC(c2ccc(-c3nccs3)c3oc(N4CC5CC(C4)N5)nc23)C(F)(F)F)CC1 (stereo not drawn) [Example 282, 2-(3,6-Diazabicyclo[3.1.1]heptan-3-yl)-7-(thiazol-2-yl)-4-(2,2,2-trifluoro-1-((1-methoxycyclopropyl)methoxy)ethyl)benzo[d]oxazole] | < 100
7 | COC1(c2cc(-c3nccs3)c3oc(N4CC5CC(C4)N5)nc3c2OC(F)(F)F)CC1 [Example 283, 2-(3,6-Diazabicyclo[3.1.1]heptan-3-yl)-5-(1-methoxycyclopropyl)-7-(thiazol-2-yl)-4-(trifluoromethoxy)benzo[d]oxazole] | < 100
8 | CC(C)(O)COC(c1ccc(-c2cscn2)c2oc(N3CC4CC(C3)N4)nc12)C(F)(F)F (stereo not drawn) [Example 284, 1-(1-(2-(3,6-Diazabicyclo[3.1.1]heptan-3-yl)-7-(thiazol-4-yl)benzo[d]oxazol-4-yl)-2,2,2-trifluoroethoxy)-2-methylpropan-2-ol] | < 100
9 | OC1(COC(c2ccc(-c3cscn3)c3oc(N4CC5CC(C4)N5)nc23)C(F)(F)F)CC1 (stereo not drawn) [Example 286, 1-((1-(2-(3,6-Diazabicyclo[3.1.1]heptan-3-yl)-7-(thiazol-4-yl)benzo[d]oxazol-4-yl)-2,2,2-trifluoroethoxy)methyl)cyclopropan-1-ol] | < 100
10 | COC(C)(C)c1cc(-c2cscn2)c2oc(N3CC4CC(C3)N4)nc2c1OC(F)(F)F [Example 287, 2-(3,6-Diazabicyclo[3.1.1]heptan-3-yl)-5-(2-methoxypropan-2-yl)-7-(thiazol-4-yl)-4-(trifluoromethoxy)benzo[d]oxazole] | < 100
11 | CC(C)(O)c1cc(-c2cscn2)c2oc(N3CC4CC(C3)N4)nc2c1OC(F)(F)F [Example 288, 2-(2-(3,6-Diazabicyclo[3.1.1]heptan-3-yl)-7-(thiazol-4-yl)-4-(trifluoromethoxy)benzo[d]oxazol-5-yl)propan-2-ol] | < 100
12 | CC(C)(O)C(F)(F)Oc1ccc(-c2ccccn2)c2oc(N3CC4CC(C3)N4)nc12 [Example 289, 1-((2-(3,6-Diazabicyclo[3.1.1]heptan-3-yl)-7-(pyridin-2-yl)benzo[d]oxazol-4-yl)oxy)-1,1-difluoro-2-methylpropan-2-ol] | < 100
13 | CC(C)(O)C(F)(F)Oc1ccc(-c2ncco2)c2oc(N3CC4CC(C3)N4)nc12 [Example 290, 1-((2-(3,6-Diazabicyclo[3.1.1]heptan-3-yl)-7-(oxazol-2-yl)benzo[d]oxazol-4-yl)oxy)-1,1-difluoro-2-methylpropan-2-ol] | < 100
14 | CC(C)(O)c1cc(-c2cscn2)c2oc(N3CC4CCC(C3)N4)nc2c1OC(F)(F)F [Example 291, 2-(2-(3,8-Diazabicyclo[3.2.1]octan-3-yl)-7-(thiazol-4-yl)-4-(trifluoromethoxy)benzo[d]oxazol-5-yl)propan-2-ol] | < 100
15 | OC(c1cc(-c2nccs2)c2oc(N3CC4CC(C3)N4)nc2c1OC(F)(F)F)C(F)F (stereo not drawn) [Example 292, 1-(2-(3,6-Diazabicyclo[3.1.1]heptan-3-yl)-7-(thiazol-2-yl)-4-(trifluoromethoxy)benzo[d]oxazol-5-yl)-2,2-difluoroethan-1-ol] | < 100
16 | OC(c1cc(-c2nccs2)c2oc(N3CC4CC(C3)N4)nc2c1OC(F)(F)F)C(F)F (stereo not drawn) [Example 293, 1-(2-(3,6-Diazabicyclo[3.1.1]heptan-3-yl)-7-(thiazol-2-yl)-4-(trifluoromethoxy)benzo[d]oxazol-5-yl)-2,2-difluoroethan-1-ol] | < 100
17 | CC(C)(O)CC(F)(F)Oc1ccc(-c2nccs2)c2oc(N3CC4CC(C3)N4)nc12 [Example 295, 4-((2-(3,6-Diazabicyclo[3.1.1]heptan-3-yl)-7-(thiazol-2-yl)benzo[d]oxazol-4-yl)oxy)-4,4-difluoro-2-methylbutan-2-ol] | < 100

Row | SMILES | IC50 [nM]
18 | CC(O)(c1ccc(-c2nccs2)c2oc(N3CC4CC(C3)N4)nc12)C(F)F (stereo not drawn) [Example 297, 2-(2-(3,6-Diazabicyclo[3.1.1]heptan-3-yl)-7-(thiazol-2-yl)benzo[d]oxazol-4-yl)-1,1-difluoropropan-2-ol] | < 100
19 | COC(C)(C)c1cc(-c2cscn2)c2oc(N3CC4CCC(C3)N4)nc2c1OC(F)(F)F [Example 298, 2-(3,8-Diazabicyclo[3.2.1]octan-3-yl)-5-(2-methoxypropan-2-yl)-7-(thiazol-4-yl)-4-(trifluoromethoxy)benzo[d]oxazole] | < 100
20 | OC1(c2cc(-c3cscn3)c3oc(N4CC5CC(C4)N5)nc3c2OC(F)(F)F)CC1 [Example 299, 1-(2-(3,6-Diazabicyclo[3.1.1]heptan-3-yl)-7-(thiazol-4-yl)-4-(trifluoromethoxy)benzo[d]oxazol-5-yl)cyclopropan-1-ol] | < 100
21 | OC(c1cc(-c2cscn2)c2oc(N3CC4CC(C3)N4)nc2c1OC(F)(F)F)C(F)F (stereo not drawn) [Example 300, 1-(2-(3,6-Diazabicyclo[3.1.1]heptan-3-yl)-7-(thiazol-4-yl)-4-(trifluoromethoxy)benzo[d]oxazol-5-yl)-2,2-difluoroethan-1-ol] | < 100
22 | OC(c1cc(-c2cscn2)c2oc(N3CC4CC(C3)N4)nc2c1OC(F)(F)F)C(F)F (stereo not drawn) [Example 301, 1-(2-(3,6-Diazabicyclo[3.1.1]heptan-3-yl)-7-(thiazol-4-yl)-4-(trifluoromethoxy)benzo[d]oxazol-5-yl)-2,2-difluoroethan-1-ol] | < 100
23 | OC(c1cc(-c2cscn2)c2oc(N3CC4CCC(C3)N4)nc2c1OC(F)(F)F)C(F)F (stereo not drawn) [Example 302, 1-(2-(3,8-Diazabicyclo[3.2.1]octan-3-yl)-7-(thiazol-4-yl)-4-(trifluoromethoxy)benzo[d]oxazol-5-yl)-2,2-difluoroethan-1-ol] | < 100
24 | OC(c1cc(-c2cscn2)c2oc(N3CC4CCC(C3)N4)nc2c1OC(F)(F)F)C(F)F (stereo not drawn) [Example 303, 1-(2-(3,8-Diazabicyclo[3.2.1]octan-3-yl)-7-(thiazol-4-yl)-4-(trifluoromethoxy)benzo[d]oxazol-5-yl)-2,2-difluoroethan-1-ol] | < 100
25 | OC1CCC(Oc2ccc(-c3nccs3)c3oc(N4CC5CC(C4)N5)nc23)CC1 (stereo not drawn) [Example 305, 4-((2-(3,6-Diazabicyclo[3.1.1]heptan-3-yl)-7-(thiazol-2-yl)benzo[d]oxazol-4-yl)oxy)cyclohexan-1-ol] | < 100
26 | CC(C)(O)C(F)(F)Oc1ccc(-c2cscn2)c2oc(N3CC4CC(C3)N4)nc12 [Example 307, 1-((2-(3,6-Diazabicyclo[3.1.1]heptan-3-yl)-7-(thiazol-4-yl)benzo[d]oxazol-4-yl)oxy)-1,1-difluoro-2-methylpropan-2-ol] | < 100
27 | CC(C)(O)C(F)(F)Oc1ccc(-c2cscn2)c2oc(N3CC4CCC(C3)N4)nc12 [Example 308, 1-((2-(3,8-Diazabicyclo[3.2.1]octan-3-yl)-7-(thiazol-4-yl)benzo[d]oxazol-4-yl)oxy)-1,1-difluoro-2-methylpropan-2-ol] | < 100
28 | CC(O)C(F)(F)Oc1ccc(-c2cscn2)c2oc(N3CC4CC(C3)N4)nc12 (stereo not drawn) [Example 309, 1-((2-(3,6-Diazabicyclo[3.1.1]heptan-3-yl)-7-(thiazol-4-yl)benzo[d]oxazol-4-yl)oxy)-1,1-difluoropropan-2-ol] | < 100
29 | CC(O)C(F)(F)Oc1ccc(-c2cscn2)c2oc(N3CC4CCC(C3)N4)nc12 (stereo not drawn) [Example 310, 1-((2-(3,8-Diazabicyclo[3.2.1]octan-3-yl)-7-(thiazol-4-yl)benzo[d]oxazol-4-yl)oxy)-1,1-difluoropropan-2-ol] | < 100
30 | OCC(F)(F)Oc1ccc(-c2cscn2)c2oc(N3CC4CC(C3)N4)nc12 [Example 311, 2-((2-(3,6-Diazabicyclo[3.1.1]heptan-3-yl)-7-(thiazol-4-yl)benzo[d]oxazol-4-yl)oxy)-2,2-difluoroethan-1-ol] | < 100
31 | OCC(F)(F)Oc1ccc(-c2cscn2)c2oc(N3CC4CCC(C3)N4)nc12 [Example 312, 2-((2-(3,8-Diazabicyclo[3.2.1]octan-3-yl)-7-(thiazol-4-yl)benzo[d]oxazol-4-yl)oxy)-2,2-difluoroethan-1-ol] | < 100
32 | CC(C)(O)C(Oc1ccc(-c2nccs2)c2oc(N3CC4CC(C3)N4)nc12)C(F)(F)F (stereo not drawn) [Example 313, 3-((2-(3,6-Diazabicyclo[3.1.1]heptan-3-yl)-7-(thiazol-2-yl)benzo[d]oxazol-4-yl)oxy)-4,4,4-trifluoro-2-methylbutan-2-ol] | < 100
33 | O=S1(=O)CCC(Oc2ccc(-c3nccs3)c3oc(N4CC5CC(C4)N5)nc23)CC1 [Example 314, 4-((2-(3,6-Diazabicyclo[3.1.1]heptan-3-yl)-7-(thiazol-2-yl)benzo[d]oxazol-4-yl)oxy)tetrahydro-2H-thiopyran 1,1-dioxide] | < 100
